biological target: human NEP (Homo sapiens (Human), UniProt P08473); assay: In vitro enzyme inhibition assay, inhibitor potencies at human NEP; settings: not given
Sequence (P08473 52-750): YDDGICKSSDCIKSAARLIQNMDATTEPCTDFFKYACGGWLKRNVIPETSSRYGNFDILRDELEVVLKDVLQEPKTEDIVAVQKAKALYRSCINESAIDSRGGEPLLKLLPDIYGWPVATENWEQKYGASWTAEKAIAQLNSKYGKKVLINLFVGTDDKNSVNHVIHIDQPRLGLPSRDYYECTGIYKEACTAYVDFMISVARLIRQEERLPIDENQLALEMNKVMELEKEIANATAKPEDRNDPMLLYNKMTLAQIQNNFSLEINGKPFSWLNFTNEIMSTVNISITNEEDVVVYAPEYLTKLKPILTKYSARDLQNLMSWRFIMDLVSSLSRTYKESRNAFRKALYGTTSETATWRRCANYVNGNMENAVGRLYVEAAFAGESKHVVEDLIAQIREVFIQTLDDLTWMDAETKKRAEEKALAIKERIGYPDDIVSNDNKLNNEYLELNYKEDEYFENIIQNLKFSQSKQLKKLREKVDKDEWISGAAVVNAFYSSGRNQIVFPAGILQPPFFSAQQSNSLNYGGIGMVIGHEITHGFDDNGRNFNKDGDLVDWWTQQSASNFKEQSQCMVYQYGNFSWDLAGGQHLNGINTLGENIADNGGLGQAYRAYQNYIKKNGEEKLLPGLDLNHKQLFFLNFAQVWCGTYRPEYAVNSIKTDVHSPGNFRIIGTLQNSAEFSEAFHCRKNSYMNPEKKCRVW

Row | Ki [nM] | SMILES
1 | ≤ 1 | O=C(N[C@H](Cc1ccc(-c2cccc(F)c2)cc1)C[C@@H](CO)C(=O)O)c1cc(-c2ccccc2Cl)n[nH]1 [Example 4-29, (2S,4S)-4-{[5-(2-Chlorophenyl)-2H-pyrazole-3-carbonyl]-amino}-5-(3′-fluorobiphenyl-4-yl)-2-hydroxymethyl-pentanoic acid]
2 | 12.6 to 100 | CN(C)C(=O)c1cc(C(=O)N[C@H](Cc2ccc(-c3ccccc3)cc2)C[C@H](CO)C(=O)O)[nH]n1 [Example 4-20, (2R,4S)-5-Biphenyl-4-yl-4-[(5-dimethylcarbamoyl-2H-pyrazole-3-carbonyl)-amino]-2-hydroxymethyl-pentanoic acid]
3 | ≤ 1 | O=C(N[C@H](Cc1ccc(-c2cccc(F)c2)cc1)C[C@@H](CO)C(=O)O)c1cnn[nH]1 [Example 4-3, (2S,4S)-5-(3′-Fluorobiphenyl-4-yl)-2-hydroxymethyl-4-[(3H-[1,2,3]triazole-4-carbonyl)-amino]-pentanoic acid]
4 | ≤ 1 | O=C(N[C@H](Cc1ccc(-c2ccccc2F)cc1)C[C@@H](CO)C(=O)O)c1nc(Cl)n[nH]1 [Example 4-16, (2S,4S)-4-[(5-Chloro-2H-[1,2,4]triazole-3-carbonyl)-amino]-5-(2′-fluorobiphenyl-4-yl)-2-hydroxymethyl-pentanoic acid]
5 | ≤ 1 | C[C@@](CO)(C[C@@H](Cc1ccc(-c2ccccc2)cc1)NC(=O)c1cc(O)no1)C(=O)O [Example 6-19, (2S,4R)-5-Biphenyl-4-yl-4-[(3-hydroxy-isoxazole-5-carbonyl)-amino]-2-hydroxymethyl-2-methyl-pentanoic acid]
6 | ≤ 1 | C[C@@](CO)(C[C@@H](Cc1ccc(-c2ccccc2F)cc1)NC(=O)c1coc(=O)[nH]1)C(=O)O [Example 8-5, (2S,4R)-5-(2′-Fluoro-biphenyl-4-yl)-2-hydroxymethyl-2-methyl-4-[(2-oxo-2,3-dihydro-oxazole-4-carbonyl)-amino]-pentanoic acid]
7 | ≤ 1 | O=C(O)c1cc(C(=O)N[C@H](Cc2ccc(-c3ccccc3)cc2)C[C@@H](CO)C(=O)O)[nH]n1 [Example 4-18, 5-((1S,3S)-1-Biphenyl-4-ylmethyl-3-carboxy-4-hydroxy-butylcarbamoyl)-1H-pyrazole-3-carboxylic acid]
8 | 1.26 to 10 | CN(C)C(=O)c1cc(C(=O)N[C@H](Cc2ccc(-c3ccccc3)cc2)C[C@@H](CO)C(=O)O)[nH]n1 [Example 4-21, (2S,4S)-5-Biphenyl-4-yl-4-[(5-dimethylcarbamoyl-2H-pyrazole-3-carbonyl)-amino]-2-hydroxymethyl-pentanoic acid]
9 | 12.6 to 100 | Cc1n[nH]c(C(=O)N[C@H](Cc2ccc(-c3ccccc3)cc2)C[C@@H](CO)C(=O)O)n1 [Example 4-13, (2S,4S)-5-Biphenyl-4-yl-2-hydroxymethyl-4-[(5-methyl-2H-[1,2,4]triazole-3-carbonyl)-amino]-pentanoic acid]
10 | ≤ 1 | C[C@@](CO)(C[C@@H](Cc1ccc(-c2ccccc2F)cc1)NC(=O)c1cn(O)nn1)C(=O)O [Example 8-4, (2S,4R)-5-(2′-Fluoro-biphenyl-4-yl)-2-hydroxymethyl-4-[(1-hydroxy-1H-[1,2,3]triazole-4-carbonyl)-amino]-2-methyl-pentanoic acid]
11 | ≤ 1 | O=C(N[C@H](Cc1ccc(-c2ccccc2)cc1)C[C@@H](CO)C(=O)O)c1cc(C(=O)N2CCC2)n[nH]1 [Example 4-24, (2S,4S)-4-{[5-(Azetidine-1-carbonyl)-2H-pyrazole-3-carbonyl]-amino}-5-biphenyl-4-yl-2-hydroxymethyl-pentanoic acid]
12 | ≤ 1 | O=C(N[C@H](Cc1ccc(-c2cccc(Cl)c2)cc1)C[C@@H](CO)C(=O)O)c1c[nH]nn1 [Example 4-9, (2S,4S)-5-(3′-Chloro-biphenyl-4-yl)-2-hydroxymethyl-4-[(1H-[1,2,3]triazole-4-carbonyl)-amino]-pentanoic acid]
13 | ≤ 1 | C[C@@](CO)(C[C@@H](Cc1ccc(-c2cccc(F)c2)cc1)NC(=O)c1cnn[nH]1)C(=O)O [Example 8-1, (2S,4R)-5-(3′-Fluorobiphenyl-4-yl)-2-hydroxymethyl-2-methyl-4-[(3H-[1,2,3]triazole-4-carbonyl)-amino]-pentanoic acid]
14 | ≤ 1 | O=C(N[C@H](Cc1ccc(-c2ccccc2)cc1)C[C@@H](CO)C(=O)O)c1cn(O)nn1 [Example 4-7, (2S,4S)-5-Biphenyl-4-yl-2-hydroxymethyl-4-[(1-hydroxy-1H-[1,2,3]triazole-4-carbonyl)-amino]-pentanoic acid]
15 | ≤ 1 | O=C(N[C@H](Cc1ccc(-c2ccccc2)cc1)C[C@@H](CO)C(=O)O)c1cnc(O)nc1 [Example 4-47, (2S,4S)-5-Biphenyl-4-yl-2-hydroxymethyl-4-[(2-hydroxy-pyrimidine-5-carbonyl)-amino]-pentanoic acid]
16 | ≤ 1 | O=C(N[C@H](Cc1ccc(-c2ccccc2)cc1)C[C@@H](CO)C(=O)O)c1cc(C(=O)N2CCCC2)n[nH]1 [Example 4-25, (2S,4S)-5-Biphenyl-4-yl-2-hydroxymethyl-4-{[5-(pyrrolidine-1-carbonyl)-2H-pyrazole-3-carbonyl]-amino}-pentanoic acid]
17 | ≤ 1 | CC(C)(c1ccc(-c2ccccc2)cc1)[C@H](C[C@@H](CO)C(=O)O)NC(=O)c1cn(O)nn1 [Example 10-1, (2S,4S)-5-Biphenyl-4-yl-2-hydroxymethyl-4-[(1-hydroxy-1H-[1,2,3]triazole-4-carbonyl)-amino]-5-methyl-hexanoic acid]
18 | ≤ 1 | O=C(N[C@H](Cc1ccc(-c2cccc(Cl)c2)cc1)C[C@@H](CO)C(=O)O)c1cn(O)nn1 [Example 4-10, (2S,4S)-5-(3′-Chloro-biphenyl-4-yl)-2-hydroxymethyl-4-[(1-hydroxy-1H-[1,2,3]triazole-4-carbonyl)-amino]-pentanoic acid]
19 | ≤ 1 | O=C(N[C@H](Cc1ccc(-c2ccccc2F)cc1)C[C@@H](CO)C(=O)O)c1cn(O)nn1 [Example 4-8, (2S,4S)-5-(2′-Fluorobiphenyl-4-yl)-2-hydroxymethyl-4-[(1-hydroxy-1H-[1,2,3]triazole-4-carbonyl)-amino]-pentanoic acid]
20 | ≤ 1 | CC(CO)(C[C@@H](Cc1ccc(-c2ccccc2)cc1)NC(=O)c1cc(C(=O)O)n[nH]1)C(=O)O (stereo partly drawn) [Example 6-15, 5-((R)-1-Biphenyl-4-ylmethyl-3-carboxy-4-hydroxy-3-methyl-butylcarbamoyl)-1H-pyrazole-3-carboxylic acid]
21 | ≤ 1 | O=C(N[C@H](Cc1ccc(-c2ccccc2)cc1)C[C@@H](CO)C(=O)O)c1cc(O)no1 [Example 4-45, (2S,4S)-5-Biphenyl-4-yl-4-[(3-hydroxy-isoxazole-5-carbonyl)-amino]-2-hydroxymethyl-pentanoic acid]
22 | ≤ 1 | O=C(N[C@H](Cc1ccc(-c2cccc(Cl)c2)cc1)C[C@@H](CO)C(=O)O)c1ccc2nnn(O)c2c1 [Example 4-34, (2S,4S)-5-(3′-Chloro-biphenyl-4-yl)-4-[(3-hydroxy-3H-benzotriazole-5-carbonyl)-amino]-2-hydroxymethyl-pentanoic acid]

Row | SMILES | Ki [nM]
23 | CC(=O)c1cc(C(=O)N[C@H](Cc2ccc(-c3ccccc3)cc2)C[C@@](C)(CO)C(=O)O)[nH]n1 [Example 6-16, (2S,4R)-4-[(5-Acetyl-2H-pyrazole-3-carbonyl)-amino]-5-biphenyl-4-yl-2-hydroxymethyl-2-methyl-pentanoic acid] | 12.6 to 100
24 | C[C@@](CO)(C[C@@H](Cc1ccc(-c2ccccc2)cc1)NC(=O)c1nc(Cl)n[nH]1)C(=O)O [Example 6-1, (2S,4R)-5-Biphenyl-4-yl-4-[(5-chloro-2H-[1,2,4]triazole-3-carbonyl)-amino]-2-hydroxymethyl-2-methyl-pentanoic acid] | 1.26 to 10
25 | O=C(N[C@H](Cc1ccc(-c2ccccc2)cc1)C[C@@H](CO)C(=O)O)c1nc(Cl)n[nH]1 [Example 2A, (2S,4S)-5-Biphenyl-4-yl-4-[(5-chloro-2H-[1,2,4]-triazole-3-carbonyl)-amino]-2-hydroxymethyl-pentanoic acid] | 1.26 to 10
26 | C[C@@](CO)(C[C@@H](Cc1ccc(-c2ccccc2)cc1)NC(=O)c1cn(Cc2ccccc2)nn1)C(=O)O [Example 6-6, (2S,4R)-4-[(1-Benzyl-1H-[1,2,3]triazole-4-carbonyl)-amino]-5-biphenyl-4-yl-2-hydroxymethyl-2-methyl-pentanoic acid] | 12.6 to 100

same assay, conditions: pKi values at human NEP; recombinant human NEP, fluorogenic peptide substrate, 37° C.

Row | SMILES | pKi
27 | O=C(N[C@H](Cc1ccc(-c2ccccc2)cc1)C[C@@H](CO)C(=O)O)c1cnn[nH]1 [Example 1B, (2S,4S)-5-Biphenyl-4-yl-2-hydroxymethyl-4-[(3H-[1,2,3]triazole-4-carbonyl)-amino]-pentanoic acid] | ≥9.0
28 | COCCN(C)C(=O)c1cc(C(=O)N[C@H](Cc2ccc(-c3ccccc3)cc2)C[C@@H](CO)C(=O)O)[nH]n1 [Example 4-22] | 8.0-8.9

— patent US10130642B2, “Neprilysin inhibitors” (THERAVANCE BIOPHARMA R&D IP, LLC, priority 2011, dated 2018)
